Where two headings read alike, the source gives them in different places.
Key:
integrase = biological target: T1, integrase (Human immunodeficiency virus type 1 group M subtype B, UniProt P04585); assay: HIV integrase 3′ processing/strand transfer assay (IC50); type: biochemical
T1 construct: Each reaction (40 ul) contains 30 nM substrate DNA ad 400 ng integrase
Procedure: A combined 3′-processing/strand transfer assay procedure similar to that published (Ovenden et al. Phytochemistry. 2004 December; 65(24):3255-9.) could be used. The assay could be adapted to a 96 well plate format. Briefly, 400 ng of […] is incubated with 30 nM substrate DNA, consisting of annealed U5 LTR sequence oligonucleotides tagged with Digoxigenin (DIG; 5′-[…]-DIG-3′ (SEQ ID NO: 1)) or biotin (5′-Bio-[…]-3′ (SEQ ID NO: 2)) so that each substrate has either a DIG or Bio tag on opposite strands. Reactions are carried out for 2 hrs at 37° C., products generated as a result of 3′ processing and strand transfer activity are bound to streptavidin plates and detected with using anti-DIG-alkaline phosphatase conjugate and p-nitro phenyl phosphate substrate.
The strand transfer specific assay is of similar format to that of the 3′ processing/strand transfer combined assay except that it uses a biotinylated substrate that represents a pre-processed LTR end (5′-Bio-[…]-3′ (SEQ ID NO: 3)).
Oligonucleotides 5′-biotin-[…]-3′ (SEQ ID NO: 3) and 5′-[…]-Dig-3′ (SEQ ID NO: 1) are annealed in 10 mM Tris-Cl pH8.0, 100 mM NaCl, 2 mM EDTA at a final concentration of 30 uM.
Each reaction (40 ul) contains 30 nM substrate DNA ad 400 ng integrase in a reaction buffer comprising 20 mM Tris-Cl pH7.5, 25 mM NaCl, 5 mM MnCl2, 5 mM MgCl2, 5 mM B-ME, 50 ug/mL BSA, 0.05% (v/v) Tween-20.
Compounds are added in DMSO at 1/10 final reaction volume.
Reactions are incubated at 37° C. for 2 hr followed by the addition of 60 ul adjustment buffer containing 33 mM Tris-Cl pH 7.5, 664 mM NaCl, 16.6 mM EDTA, 0.166 mg/mL sonicated salmon sperm DNA.
The samples are then transferred to Streptavidin coated plates and products of the enzyme reactions are allowed to bind for 1 hr at room temperature.
Plates are then washed with 3×5 min with 30 mM NaOH, 200 mM NaCl, 1 mM EDTA then 3×5 min with wash 2: 10 mM Tris-Cl pH8.0, 6 mM EDTA, 0.1 mg/mL nuclease free BSA.
Anti-digoxigenin-phosphatase Fab (Roche, 0.1 U/mL)), diluted 1/2000 in wash 2 buffer is then added to each well and plates incubated 1 hr at 37° C.
Plates are then washed 3 times with TBS— Tween-20 (0.1%) then twice with TBS and 100 ul substrate (1 mg/mL p-nitrophenylphosphate in 0.1M Tris, pH 9.8) is added and plates incubated until sufficient colour is developed.

HIV = assay: Inhibition of HIV replication (p24); type: cell-based; conditions: Human immunodeficiency virus 1; concentration inhibiting HIV p24 production to 50% of no drug controls
Procedure: (§1) Cells are seeded into 96 well microtitre plates at 50,000 cells per 50 μl per well in RF-containing […] polybrene (RF-10/2). Compounds are prepared to 4× final concentration in RF-10/2, and 30 L added to cells. Virus (40 L in RF-10/2 containing 1600 pfu) is added to each well or 40 L RF-10/2 for negative controls and for assaying compound cytotoxicity. After 24 hrs, an additional 90 μL of media or media containing 1× compound is added to each well. At 4 days post infection, 100 μL of media is removed from each well and replaced with 100 μl of fresh media with or without compound. Forty eight hours later supernatants are harvested and levels of extracellular p24 determined. Supernatants are diluted 1 in 10,000 and p24 levels assayed using the Vironostika p24 assay kit. EC50 is calculated as the concentration required to inhibit HIV p24 production to 50% that of no drug controls.

[1] = Compound cytotoxicity (CC50); type: cell-based; conditions: wells without virus
Procedure: as §1

[2] = biological target: T2, HIV integrase enzyme (Q148K) (Human immunodeficiency virus type 1 group M subtype B, UniProt P04585, Q1295K); assay: Strand transfer assay, mutant (Q148K) HIV integrase; type: biochemical; conditions: FIG. 1
Procedure: A strand transfer assay procedure similar to that published (Ovenden et al. Phytochemistry. 2004 December; 65(24):3255-9.) is used. Briefly, 400 ng of the enzyme, wild type or drug resistant mutant, is mixed with the compound to be tested and incubated with 30 nM substrate DNA. The substrate DNA is designed to mimic HIV DNA termini that has undergone 3′ end processing, and consists of the annealed U5 LTR sequence oligonucleotides tagged with Digoxigenin (DIG; 5′-[…]-DIG-3′ (SEQ ID NO: 1)) or biotin (5′-Bio-[…]-3′ (SEQ ID NO: 3)) so that each substrate has either a DIG or Bio tag on opposite strands. Reactions are carried out for 1 hr at 37° C. Products generated as a result of strand transfer activity are bound to streptavidin plates and detected using anti-DIG-alkaline phosphatase conjugate and p-nitro phenyl phosphate substrate.
FIG. 1 represents as an example, strand transfer assay results from selected compounds against wild-type integrase and the integrase containing the Q148K mutation.
HIV integrase was mutated within a shuttle vector (pGEM) containing the majority of the HIV-I gag and pol sequence using site directed mutagenesis to generate integrase sequences that have been published as conferring resistance to published integrase inhibitors. These include, but are not limited to, mutations such as Q148K. […]

[3] = biological target: T2, HIV integrase enzyme (Q148K); conditions: Q148K mutant enzyme; cited from earlier work
[4] = integrase assay, which of Example 28.1/28.2 not stated, read-out: IC50

With Cc1ccc2nc(-c3nnc(-c4ccccc4)o3)c(O)c(=O)n2c1 the IC50 (integrase; [4]) was > 1000 nM.

In the case of Cc1ccc2nc(-c3nnc(Cc4ccc(F)cc4)s3)c(O)c(=O)n2c1, the IC50 (integrase; [4]) is reported as 1 to 1000 nM.

With Cc1ccc2nc(-c3ncc(-c4ccc(F)cc4)o3)c(O)c(=O)n2c1 the IC50 (integrase; [4]) was > 1000 nM.

With Cc1ccc2nc(-c3ncc(Cc4ccc(F)cc4)o3)c(O)c(=O)n2c1 the IC50 (integrase; [4]) was 1 to 1000 nM.

Cc1ccc2nc(-c3noc(Cc4ccc(F)cc4)n3)c(O)c(=O)n2c1 showed an IC50 (integrase; [4]) of 1 to 1000 nM.

In the case of O=C(NCc1ccc(F)cc1)c1nc2ccc(Br)cn2c(=O)c1O [7-Br, CONHCH2 (4F-Ph), 7-Bromo-3-hydroxy-4-oxo-4H-pyrido[1,2-a]pyrimidine-2-carboxylic acid 4-fluoro-benzylamide], the IC50 (integrase) is reported as 1000 to 10000 nM, the EC50 (HIV) is reported as 1 to 1000 nM and the CC50 at 6 days [1] is reported as > 1000 nM.

For Cc1ccc2nc(C(=O)NCc3ccc(Cl)c(Cl)c3)c(O)c(=O)n2c1 [7-Me, CONHCH2 (3,4-ClPh), 3-Hydroxy-7-methyl-4-oxo-4H-pyrido[1,2-a]pyrimidine-2-carboxylic acid 3,4-dichloro-benzylamide], the IC50 (integrase) was 1 to 1000 nM, the EC50 (HIV) was 1 to 1000 nM and the CC50 at 6 days [1] was > 1000 nM.

In the case of Cc1ccc2nc(C(=O)NCc3ccc(F)cc3)c(O)c(=O)n2c1 [7-Me, CONHCH2 (4F-Ph), 3-Hydroxy-7-methyl-4-oxo-4H-pyrido[1,2-a]pyrimidine-2-carboxylic acid 4-fluoro-benzylamide], the IC50 (integrase) is reported as 1000 to 10000 nM, the EC50 (HIV) is reported as 1 to 1000 nM and the CC50 at 6 days [1] is reported as > 1000 nM.

With O=C(NCc1ccc(Cl)c(Cl)c1)c1nc2ccc(N3CCOCC3)cn2c(=O)c1O [Example 6.13, 3-Hydroxy-7-morpholin-4-yl-4-oxo-4H-pyrido[1,2-a]pyrimidine-2-carboxylic acid 3,4-dichloro-benzylamide] the “activity against HIV integrase enzyme (Q148K)” value [2] was “particularly high activity”.

In the case of Cc1nnc(C(=O)NC(C)(C)c2nc(C(=O)NCc3ccc(F)cc3)c(O)c(=O)n2C)o1 [Raltegravir], the “resistance of Q148K HIV integrase to published integrase inhibitors” value [3] is listed as “resistant”.
